From patent US6376175B1, “Methods of discovering chemicals capable of functioning as gene expression modulators” (OSI Pharmaceuticals, Inc., priority 1989, dated 2002)

Columns and labels:
G-CSF promoter = assay: G-CSF promoter-luciferase induction by known inducers, clone G 1002 (5637 cells); type: cell-based, human; conditions: 10.5 hours, serum-containing media; 8.3 ng/ml TNF-alpha, 20 ng/ml PMA, 0.5 ng/ml Interleukin-1 beta, or mixtures as labelled
From the text: Cloning of G-CSF sequences is described in Experimental Details, section B-3. In order to correctly fuse the G-CSF upstream sequences to the luciferase start codon, oligonucleotides were synthesized which contain the G-CSF leader sequence from +15 to the ATG (32), and were cloned into pUC19 to create pGUC84 (FIG. 29). […] The G-CSF-oligonucleotide-containing NcoI/ScaI fragment from pGUC84 was then isolated and ligated to the luciferase-containing NcoI/ScaI fragment from pUV100 to create pGUV100 (FIG. 30). Following this, the PstI fragment of the G-CSF promoter was isolated form pJM710 (FIG. 7) and inserted into the PstI site in pGUV100 generating pGUV1(FIG. 31). The rest of the G-CSF promoter clone was added by ligating the G-CSF-luciferase containing SfiI/ScaI fragment from pGUV1 to the appropriate SfiI/ScaI fragment from pJM710, creating the plasmid pGUV2 (FIG. 32). The XbaI fragment from pGUV2 containing the G-CSF-luciferase fusion was then cloned into pUV103 previously digested with XbaI/SpeI, generating pGUV140 (FIG. 33). Finally, a TK-Neo cassette (Section C) was included by ligating the ScaI/XbaI fragment from pGUV140 which contains the G-CSF-luciferase fusion into pTKNEO103 previously digested with ScaI/XbaI, yielding the final vector pGUV150 (FIG. 34).
All the following constructs were transfected into 5637 bladder carcinoma cells either by electroporation using a BRL (Gaithersburg, Md.) Cellporator electroporation device or by lipofection using BRL lipofectin and following the manufacturer's protocol. For electroporation, cells were trypsinized, treated with Soybean trypsin inhibitor (1 mg/ml), washed three times in Dulbecco's modified Eagle's medium (DMEM) without pH indicator, and 1 ml of cell suspension in DMEM was electroporated at room temperature and at a cell density of 5 million cells per ml at a voltage of 250 V and a capacitance of 1180 microFarad with the electroporation device set at low resistance. In previous experiments these parameters had been determined to result in optimal electroporation efficiency. About 15 min after electroporation cells were recovered from the disposable electroporation containers (BRL, Gaithersburg, Md.) and plated in RPMI containing 10% fetal calf serum. 2 days after electroporation 0.4 mg/ml G 418 were added and clonal cell colonies were picked 14-20 days after transfection. Clones were first analysed for luciferase expression using Lysis Buffer 1 without bovine serum albumin (see Section F) and those testing positive expanded further and frozen in liquid nitrogen. Further analysis of 6 clones (G 1002, G 2005, G 2071, G 2085, G 3014, G3031) included Southern blotting, reaction to known inducers, satisfactory attachment to microtiter plates and acceptable standard deviation in multiple luciferase expression assays. Clones G 2005 and G 2085 were derived from 5637 cells lipofected with 100 ug/ml of linearized pGVU150 (FIG. 34), G 3031 descends from cells electroporated with 100 ug/ml of linearized pGVU150, whereas 200 ug/ml of the same plasmid were used to generate G 3014. Cotransfection of circular pGVU140 (FIG. 33) with circular pTKNeo3 (FIG. 19) was used to generate clones G 1002 and G 2071. While G 1002 resulted from co-electroporation of 50 and 5 ug/ml of the two plasmids, G 2071 descends from cells lipofected with 100 and 10 ug.
Cell clones with correctly integrated promoter/reporter constructs were analysed for correct reaction to known transcriptional inducers. […] Both TNF-alpha- and PMA-induction levels of clone G 1002 were influenced by the presence or absence of epidermal growth factor (EGF). […] The 9.3fold induction by PMA in the absence of EGF was reduced to 5.6fold by including EGF in the serum-free incubation mixture. Similar differences were observed, when EGF was substituted by 10% fetal calf serum.

[1] = tested on: mouse mammary tumor virus (MMTV) promoter; type: cell-based; conditions: Table 2 A) transcriptional activators; M10 cells, 6 hours, high-throughput screen
From the text: NIH/3T3 fibroblast cells (ATCC number CRL 1658) were used for transfection of plasmids containing the mouse mammary tumor virus (MMTV) promoter linked to firefly luciferase coding sequences (see below). Cells were propagated in Dulbecco's modified Eagle's medium (DMEM) obtained from Gibco, Grand Island, N.Y. and supplemented with 10% FCS. For high-throughput (HTP) screening, transfected NIH/3T3 clones were transferred to serum free defined medium consisting of Iscove's modified Eagle's medium (IMEM) and Ham's F12 medium (1:1) supplemented with growth factors, hormones and nutrients as described previously (43).
The firefly luciferase gene was removed from the plant expression plasmid pDO432 (33) (FIG. 1) as a 1.9 kb BamHI fragment and cloned into the BamHI site of pSVL (Pharmacia, Piscataway, N.J.), a mammalian expression vector containing the SV40 promoter. The resulting plasmid (pSVLuci; FIG. 2) was digested with XhoI and SalI to produce a 2.4 kb fragment containing the luciferase coding sequences and the SV40 late polyadenylation site. This fragment was inserted into the XhoI site of pMSG (Pharmacia, Piscataway, N.J.), a eukaryotic expression vector containing the MMTV promoter. The resulting MMTV promoter-luciferase fusion plasmid (pMLuci; FIG. 3) was used to transfect NIH/3T3 cells as described below (section E1). Similar constructs can be made using luciferase vectors from Clontech (Palo Alto, Calif.).
pMluci (FIG. 3) and pSV2Neo, an antibiotic resistance plasmid (34), were co-transfected into NIH/3T3 mouse fibroblast cells using the calcium phosphate precipitation method (15) with a commercially available kit (Pharmacia, Piscataway N.J.). Two days later, cells were transferred to media containing 0.4 mg/ml G418 and were grown for an additional 10-14 days. G418-resistant clones were isolated by standard methods. Once sufficient cell numbers were obtained, clones were analyzed based on several criteria: constitutive luciferase production, induction of luciferase expression by dexamethasone (1 μm, Sigma, St. Louis, Mo.), satisfactory attachment to microtiter plates used in the high-throughput screen (see Section G) and acceptable standard deviation in multiple luciferase expression assays (see below for assay protocol). This analysis was carried out using the luciferase assay conditions described in sections F and G. Of the clones which satisfied the above criteria for the high throuphput screen, one clone, M10, was selected for use.
(§1) Cell plating: Dynatech Microlite 96 well plates were custom pretreated for cell attachment by Dynatech Laboratories, Inc. (Chantilly, Va.). Alternatively, the 96 well plates were treated with 50 µl per well of human fibronectin (hFN, 15 µg/ml in PBS, Collaborative Research, Bedford, Mass.) overnight at 37 C. hFN-treated plates were washed with PBS using an Ultrawash 2 Microplate Washer (Dynatech Labs), to remove excess hFN prior to cell plating. M10, 532, and G21 cells maintained in their respective serum media (with 0.2 mg/ml G418) were washed with PBS, harvested by trypsinization, and counted using a hemocytometer and the Trypan Blue exclusion method according to protocols provided by Sigma, St. Louis, Mo. Chemical Company. Cells were then diluted into serum free defined media (with 0.2 mg/ml G418), and 0.2 ml of cell suspension per well was plated onto Dynatech treated plates (532 and G21) or hFN-treated plates (M10) using a Cetus Pro/Pette (Cetus, Emeryville Calif.). Plates were incubated overnight at 37 C in a humidified 5% CO2 atmosphere.
(§2) Addition of Chemicals to Cells: Chemicals from the Oncogene Science file were dissolved in DMSO at concentrations of 3-30 mg/ml. A liquid handling laboratory work station (RSP 5052, Tecan U.S. Chapel Hill, N.C.) was used to dilute the chemicals (three dilutions; 5 fold, 110 fold, and 726 fold). 10 11 of each dilution were added to each of quadruplicate samples of cells contained in the wells of 96-well Dyantech Microlite Plates. […]

human G-CSF promoter = type: cell-based; conditions: Table 2 A) transcriptional activators; G21 cells, 6 hours, high-throughput screen
From the text: A human bladder carcinoma cell line (U5637, ATCC number HTB 9) was used for transfection of plasmids containing the human Granulocyte-Colony Stimulating Factor (G-CSF) promoter (see below) and was maintained in RPMI medium supplemented with 10% FCS. For HTP screening, transfected 5637 clones were transferred to a serum free defined medium identical to that used for the NIH/3T3 clones.
The sequences of OL-1, OL-2 and OL-5 recognize the G-CSF promoter region, OL-4 recognizes the first intron/exon junction and OL-3 recognizes sequences within the second exon (32). One of the clones isolated from the leukocyte library using these oligonucleotide probes contains a 3.5 kb SalI-BamHI fragment of G-CSF genomic sequence consisting of 3.3 kb of promoter sequence and two hundred base pairs of the coding region. This fragment was inserted into the vector pGEM-7-Zf (Promega, Madison, Wis.) which had previously been digested with SalI/BamHI, resulting in the vector pJM710 (FIG. 7). pJM710 was then digested with PstI, and the resulting 1.6 kb fragment containing G-CSF upstream sequences and the first 15 bases of the G-CSF leader sequence was inserted into the PstI site of pGEM5-Luci (FIG. 8) to generate pG-Lucl (FIG. 9). This construct was then used for transfection of 5637 human bladder carcinoma cells as described below in section E3. pGEM5-Luci (FIG. 8) had previously been constructed by inserting the […]/SalI fragment from pSVLuci (FIG. 2) containing the luciferase coding sequence and the SV40 late polyadenylation signal into pGEM 5-Zf (Promega, Madison Wis.) digested with XhoI/SalI.
pG-LUC1 (FIG. 9) and pRSVNeo were co-transfected into 5637 human bladder carcinoma cells as described above. Selection of G418 resistant clones was as described above except for using a concentration of 0.1 mg/ml G418. Analysis of cell clones was performed as above except that a known inducer of G-CSF expression (1-5 µg/ml lipopolysaccharide (LPS), E. coli serotype 055:b5, Difco, Detroit, Mich. or Sigma, St. Louis, Mo.) was used in place of dexamethasone.
as §1, §2

[2] = tested on: human growth hormone promoter; type: cell-based; conditions: Table 2 A) transcriptional activators; 532 cells, 6 hours, high-throughput screen
From the text: A rat pituitary cell line, designated GC, (4, 25) was used for transfection of plasmids containing the human growth hormone promoter (see below) and was maintained in DMEM and Ham's F12 medium (1:1), supplemented with 12.5% FCS. For HTP screening, transfected GC clones were transferred to serum free defined medium consisting of DMEM and Ham's F12 medium (1:1) supplemented with growth factors, hormones and nutrients as described previously (17, 5).
The SalI-XhoI fragment of pSVLuci (FIG. 2) containing the luciferase coding sequences and the SV40 late polyadenylation site was inserted into pUC 8 (Biorad, Richmond, Calif.), which has been linearized by a SmaI/HinCII digestion and ligated to XhoI linkers (New England Biolabs, Beverly, Mass.). The new plasmid thus generated (pUXLuci; FIG. 4) was linearized by XhoI digestion followed by incubation with the Klenow fragment of E. coli DNA polymerase and the four deoxyribonucleotides to fill in the single-stranded ends of the vector. This linear (5.1 KB) form of pUXLuci was then ligated to the filled-in 550 bP HindIII-XbaI fragment of the plasmid phGH:CAT (FIG. 5) (25). Human growth hormone promoter sequences located on the HindIII-XbaI fragment were thus fused to the luciferase coding sequences located on pUXLuci generating the plasmid phGH-Luci (FIG. 6), which was used in transfections of GC cells as described below (Section E2).
phGH-LUCI (FIG. 6) and pRSVNeo, an antibiotic resistance plasmid (14), were co-transfected into GC rat pituitary cells as described above. Selection of G418-resistant cell clones was described above except for using a concentration of 0.2 mg/ml G418. Analysis of the cell clones was performed as above, except that known inducers of hGH expression (10-100 nM rat growth hormone releasing factor (rGRF, Bachem, Torrance, Calif.) and 10 μm forskolin (Sigma, St. Louis, Mo.) were used in place of dexamethasone. One clone, 532, was selected for further use in the high throughput screen.
as §1
Addition of Chemicals to Cells: Chemicals from the Oncogene Science file were dissolved in DMSO at concentrations of 3-30 mg/ml. A liquid handling laboratory work station (RSP 5052, Tecan U.S. Chapel Hill, N.C.) was used to dilute the chemicals (three dilutions; 5 fold, 110 fold, and 726 fold). 10 11 of each dilution were added to each of quadruplicate samples of cells contained in the wells of 96-well Dyantech Microlite Plates. Cell plates were then shaken on a microplate shaker (Dyantech, medium setting, 30 sec.) and incubated for 6 hours at 37 C, 5% CO2.
Bioluminescence Assay: After incubation with OSI-file chemicals, cell plates were washed 3 times with PBS using an Ultrawash 2 Microplate Washer (Dyantech Labs) and 75 µl of Lysis Buffer 2 were added to each well (Lysis Buffer 2 is the same as Lysis buffer 1 exept that the ATP and DTT concentrations were changed to 2.67 mM and 133 mM, respectively). […]

| Compound | G-CSF promoter induction, clone G 1002 (G-CSF promoter) [fold] | MMTV fold induction relative to solvent control [1] [fold] | GCSF fold induction relative to solvent control (human G-CSF promoter) [fold] | hGH fold induction relative to solvent control [2] [fold] |
| --- | --- | --- | --- | --- |
| Interleukin-1 beta: Interleukin-1 beta, known transcriptional inducer | 2.6 |  |  |  |
| CC1(C(=O)OCC(F)(F)C(F)(F)C(F)(F)C(F)(F)C(F)(F)C(F)F)CCC(C(=O)OCC(F)(F)C(F)(F)C(F)(F)C(F)(F)C(F)(F)C(F)F)C1(C)C (stereo not shown) [Chemical 1592] |  | 1.34 | 3.20 | 0.74 |
